Assay results reported in patent publication US20140107109A1, “AMINO-DIHYDROTHIAZINE AND AMINO-DIOXIDO DIHYDROTHIAZINE COMPOUNDS AS BETA-SECRETASE ANTAGONISTS AND METHODS OF USE” (Amgen Inc., priority 2012, published 2014).
Read-outs that look alike come from different tables or passages of the source.

Legend:
[1] = system: Aβ40 in conditioned medium of cells stably expressing Amyloid Precursor Protein (APP); test: In vitro BACE cell-based assay (HEK cell assay), Aβ40 sandwich ELISA; conditions: Homo sapiens, HEK293
How it was run: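 APP-stably expressing cells (40K/well, grown 24 h in DMEM/10% FBS) were treated 24 h with compounds in 10-point dose response starting at 100 μM or 10 μM, 0.1% DMSO final. Secreted Aβ40 was measured by sandwich ELISA (pAb40 capture, biotinylated 6E10 detection, europium time-resolved fluorescence); IC50 from percent inhibition.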

Cathepsin D (Cat D) = target: T1, Cathepsin D (Cat D) (Homo sapiens, UniProt P07339); test: In vitro enzymatic Cathepsin D (Cat D) FRET assay; type: biochemical; conditions: read-out: CatD IC50
T1 construct: Recombinant Cat D was expressed in CHO cells; made in house; host or cells: CHO cells
How it was run: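 Recombinant Cat D expressed in CHO cells, used at 9 nM and pre-incubated one hour with serially diluted inhibitor in DMSO. Peptide substrate carries a fluorophore and quencher flanking the cleavage site; reaction stopped with Tris buffer raising pH to neutrality, then fluorescence read.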

[2] = target: Beta Secretase enzyme (BACE1) (Homo sapiens, UniProt P56817); test: In vitro enzymatic BACE FRET assay; type: biochemical; conditions: read-out: BACE1 FRET assay IC50
How it was run: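 BACE1 cleavage of a 50 nM fluorophore/quencher peptide FRET substrate ran for one hour in 0.05 M acetate pH 4.2, 10% DMSO, 100 uM genapol. Tris buffer raised pH to neutrality to stop the reaction before fluorescence was read (excitation 488 nm, […]).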

T1 sequence (P07339 65-412, species assumed): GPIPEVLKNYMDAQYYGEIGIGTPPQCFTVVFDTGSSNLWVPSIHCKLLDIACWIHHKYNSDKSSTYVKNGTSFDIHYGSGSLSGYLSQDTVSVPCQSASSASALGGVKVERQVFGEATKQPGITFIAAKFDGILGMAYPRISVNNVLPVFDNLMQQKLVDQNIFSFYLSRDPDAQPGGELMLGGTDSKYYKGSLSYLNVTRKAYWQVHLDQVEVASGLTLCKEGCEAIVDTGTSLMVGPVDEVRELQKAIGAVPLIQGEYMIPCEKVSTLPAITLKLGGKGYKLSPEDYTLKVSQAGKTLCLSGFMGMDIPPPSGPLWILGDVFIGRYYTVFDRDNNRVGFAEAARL
Chain of Beta Secretase enzyme (BACE1) (P56817 46-501): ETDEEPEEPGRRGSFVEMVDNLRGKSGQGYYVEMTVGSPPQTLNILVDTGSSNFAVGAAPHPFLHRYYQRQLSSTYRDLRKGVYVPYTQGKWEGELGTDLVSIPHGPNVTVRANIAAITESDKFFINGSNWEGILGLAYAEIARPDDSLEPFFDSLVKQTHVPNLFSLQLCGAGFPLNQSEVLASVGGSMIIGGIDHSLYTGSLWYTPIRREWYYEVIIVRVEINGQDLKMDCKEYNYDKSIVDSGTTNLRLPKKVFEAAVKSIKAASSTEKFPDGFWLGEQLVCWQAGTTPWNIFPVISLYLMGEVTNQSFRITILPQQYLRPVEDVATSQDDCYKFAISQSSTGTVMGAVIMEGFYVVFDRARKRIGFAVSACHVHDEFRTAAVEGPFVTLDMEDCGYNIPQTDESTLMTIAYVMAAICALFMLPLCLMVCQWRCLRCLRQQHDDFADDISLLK

Row | SMILES | IC50 (Cathepsin D (Cat D)) [µM] | IC50 [2] [µM] | IC50 ([2]; average IC50, enzyme assay) [µM] | IC50 ([1]; average IC50, cell assay) [µM] | further results
1 | CC(C)c1cc(Cl)cnc1C(=O)Nc1ccc(F)c([C@]2(CF)CS(=O)(=O)C(C)(C)C(N)=N2)c1 [Example 198, (S)—N-(3-(5-amino-3-(fluoromethyl)-6,6-dimethyl-1,1-dioxido-3,6-dihydro-2H-1,4-thiazin-3-yl)-4-fluorophenyl)-5-chloro-3-isopropylpicolinamide 2,2,2-trifluoroacetate] | 850 | – | 0.00799 | – | IC50 ([1]; average IC50, HEK cell assay): 0.0914 µM
2 | CC1(C)C(N)=N[C@](CF)(c2cc(NC(=O)c3ccc(C#N)cn3)ccc2F)CS1(=O)=O [Example 406, N-(3-((3S)-5-amino-3-(fluoromethyl)-6,6-dimethyl-1,1-dioxido-3,6-dihydro-2H-1,4-thiazin-3-yl)-4-fluorophenyl)-5-cyano-2-pyridinecarboxamide] | > 400 | 0.00054 | – | – | IC50 [1]: 0.0143 µM
3 | CC1(C)C(N)=N[C@](C)(c2cc(Oc3cc(-c4ccncc4)ccn3)ccc2F)CS1(=O)=O [Example 290, (5R)-5-(5-(4,4′-bipyridin-2-yloxy)-2-fluorophenyl)-2,2,5-trimethyl-5,6-dihydro-2H-1,4-thiazin-3-amine 1,1-dioxide] | 826 | – | 0.328 | 0.318 | –
4 | CC1(C)C(N)=N[C@](C)(c2cc(Nc3nccc4cc(OCC5CC5)cnc34)ccc2F)CS1(=O)=O [Example 260, N-(3-((3R)-5-amino-3,6,6-trimethyl-1,1-dioxido-3,6-dihydro-2H-1,4-thiazin-3-yl)-4-fluorophenyl)-3-(cyclopropylmethoxy)-1,7-naphthyridin-8-amine] | 250 | – | 0.0038 | 0.0075 | –
5 | CCOc1cnc2c(Nc3ccc(F)c([C@]4(CF)CS(=O)(=O)C5(CCC5)C(N)=N4)c3)ncc(F)c2c1 [Example 438, N-(3-((7S)-9-amino-7-(fluoromethyl)-5,5-dioxido-5-thia-8-azaspiro[3.5]non-8-en-7-yl)-4-fluorophenyl)-3-ethoxy-5-fluoro-1,7-naphthyridin-8-amine] | > 1.65 | – | 0.00382 | 0.198 | –
6 | CC1(C)C(N)=N[C@](C)(c2cc(NC(=O)c3cnc(OCC(F)(F)F)cn3)cnc2F)CS1(=O)=O [Example 402, N-(5-((3R)-5-amino-3,6,6-trimethyl-1,1-dioxido-3,6-dihydro-2H-1,4-thiazin-3-yl)-6-fluoro-3-pyridinyl)-5-(2,2,2-trifluoroethoxy)-2-pyrazinecarboxamide] | 2780 | 0.0011 | – | – | IC50 [1]: 0.011 µM
7 | CC1(C)C(N)=N[C@](C)(c2cc(Oc3ncccc3N)ccc2F)CS1(=O)=O [Example 273, (5R)-5-(5-((3-amino-2-pyridinyl)oxy)-2-fluorophenyl)-2,2,5-trimethyl-5,6-dihydro-2H-1,4-thiazin-3-amine 1,1-dioxide] | > 400 | – | 1.5 | 1.01 | –
8 | CCOc1cnc2c(Nc3ccc(F)c([C@]4(CF)CS(=O)(=O)C(C)(C)C(N)=N4)c3)ncc(F)c2c1 [Example 435, N-(3-((3S)-5-amino-3-(fluoromethyl)-6,6-dimethyl-1,1-dioxido-3,6-dihydro-2H-1,4-thiazin-3-yl)-4-fluorophenyl)-3-ethoxy-5-fluoro-1,7-naphthyridin-8-amine] | > 400 | – | 0.0016 | 0.049 | –
9 | CC1(C)C(N)=N[C@](C)(c2cc(Br)ccc2F)C2(CC2)S1(=O)=O [Example 187] | > 400 | – | – | – | IC50 ([1]; average IC50, HEK cells): > 15.6 µM; IC50 ([2]; average IC50): 30.7 µM
10 | CC1(C)C(N)=N[C@](C)(c2cc(Oc3cc(C(F)(F)F)ccn3)ccc2F)CS1(=O)=O [Example 259, (5R)-5-(2-fluoro-5-((4-(trifluoromethyl)-2-pyridinyl)oxy)phenyl)-2,2,5-trimethyl-5,6-dihydro-2H-1,4-thiazin-3-amine 1,1-dioxide] | 1050 | – | 0.153 | 0.248 | –
11 | CC1(C)C(N)=N[C@](C)(c2cc(NC(=O)N3CC=CCC3)ccc2F)CS1(=O)=O [Example 160, (R)—N-(3-(5-amino-3,6,6-trimethyl-1,1-dioxido-3,6-dihydro-2H-1,4-thiazin-3-yl)-4-fluorophenyl)-5,6-dihydropyridine-1(2H)-carboxamide] | > 14.8 | – | 0.575 | 0.681 | –
12 | COc1cnc2c(Nc3ccc(F)c([C@]4(C)CS(=O)(=O)[C@@](C)(F)C(N)=N4)c3)nccc2n1 [Example 59, N-(3-((3R,6R)-5-amino-6-fluoro-3,6-dimethyl-1,1-dioxido-3,6-dihydro-2H-1,4-thiazin-3-yl)-4-fluorophenyl)-2-methoxypyrido[3,4-b]pyrazin-5-amine] | 388 | 0.0033 | – | – | IC50 ([1]; Aβ40, 24 h incubation): 0.178 µM

Further compounds by falling IC50 (Cathepsin D (Cat D)), results first:

Row | IC50 (Cathepsin D (Cat D)) [µM] | IC50 [2] [µM] | IC50 ([2]; average IC50, enzyme assay) [µM] | IC50 ([1]; average IC50, cell assay) [µM] | SMILES | further results
13 | 246 | 0.119 | – | – | CC1(C)C(N)=N[C@](C)(c2cc(Oc3ccccn3)ccc2F)CS1(=O)=O [Example 103, (R)-5-amino-3-(2-fluoro-5-(pyridin-2-yloxy)phenyl)-3,6,6-trimethyl-3,6-dihydro-2H-1,4-thiazine 1,1-dioxide] | IC50 ([1]; Aβ40, 24 h incubation): 0.213 µM
14 | 228 | – | – | – | CC1(C)C(N)=N[C@](CF)(c2cc(N)ccc2F)CS1(=O)=O [Example 456, (5S)-5-(5-amino-2-fluorophenyl)-5-(fluoromethyl)-2,2-dimethyl-5,6-dihydro-2H-1,4-thiazin-3-amine 1,1-dioxide] | IC50 ([1]; average IC50, HEK cells): > 15.6 µM; IC50 ([2]; average IC50): 2.53 µM
15 | 215 | – | 0.375 | 0.99 | CC1(C)C(N)=N[C@](C)(c2cc(Sc3ncccc3F)ccc2F)CS1(=O)=O [Example 439, (5R)-5-(2-fluoro-5-((3-fluoro-2-pyridinyl)sulfanyl)phenyl)-2,2,5-trimethyl-5,6-dihydro-2H-1,4-thiazin-3-amine 1,1-dioxide] | –
16 | 188 | – | 0.0003 | – | Cc1cc(Cl)cnc1C(=O)Nc1ccc(F)c([C@@]2(C)N=C(N)C(C)(C)S(=O)(=O)C2F)c1 (stereo partly drawn) [Example 331, N-(3-((3R)-5-amino-2-fluoro-3,6,6-trimethyl-1,1-dioxido-3,6-dihydro-2H-1,4-thiazin-3-yl)-4-fluorophenyl)-5-chloro-3-methyl-2-pyridinecarboxamide] | IC50 ([1]; average IC50, HEK cell assay): 0.0048 µM
17 | 73.5 | – | 3.25 | 2.36 | CC1(C)C(N)=N[C@](C)(c2cc(Sc3ccccn3)ccc2F)CS1(=O)=O [Example 163, (R)-5-amino-3-(2-fluoro-5-(pyridin-2-ylthio)phenyl)-3,6,6-trimethyl-3,6-dihydro-2H-1,4-thiazine 1,1-dioxide] | –
18 | 47.6 | 0.0114 | – | – | COc1cnc2c(Nc3ccc(F)c([C@]4(C)CS(=O)(=O)C(C)(C)C(N)=N4)c3)cccc2n1 [Example 75, (R)-5-Amino-3-(2-fluoro-5-((2-methoxyquinoxalin-5-yl)amino)phenyl)-3,6,6-trimethyl-3,6-dihydro-2H-1,4-thiazine 1,1-dioxide] | IC50 ([1]; Aβ40, 24 h incubation): 0.212 µM
19 | 45.6 | 0.00376 | – | – | Cc1cc(OC(F)F)cnc1C(=O)Nc1ccc(F)c([C@]2(C)CS(=O)(=O)C3(CC(F)(F)C3)C(N)=N2)c1 [Example 126, (R)—N-(3-(9-amino-2,2-difluoro-7-methyl-5,5-dioxido-5-thia-8-azaspiro[3.5]non-8-en-7-yl)-4-fluorophenyl)-5-(difluoromethoxy)-3-methylpicolinamide] | IC50 [1]: 0.0177 µM
